Assay [1] addresses human adenosine A1 receptor (Homo sapiens (Human), UniProt P30542). In words: Adenosine receptor inhibition binding assay, [3H]DPCPX, A1 receptor membranes. The conditions noted are these: 1 nM [3H]DPCPX, 25° C., 1 h, Ki from IC50 by Cheng-Prusoff. A digest of the protocol:
(§1)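 Membranes from BacMam-transduced HEK293 cells (0.2 µg A2A; 1.4 µg A1) incubated 1 h at 25 °C with 1 nM radioligand; A2A in 50 mM Tris-HCl pH 7.4, A1 buffer adds 100 mM NaCl, 10 mM MgCl2. Nonspecific binding: 1 µM CGS 15943 (A2A) or 1 µM DPCPX (A1). Filtration, scintillation counting; IC50 converted to Ki via Cheng-Prusoff.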

Assay [2] has as its target human adenosine A2A receptor (Homo sapiens (Human), UniProt P29274). In words: Adenosine receptor inhibition binding assay, [3H]ZM241385, HEK293 A2A receptor membranes. The conditions noted are these: 1 nM [3H]ZM241385, HEK293-hA2A membranes, 25° C., 1 h, Ki from IC50 by Cheng-Prusoff. The gist of the method: as §1
Assay [3] concerns the target human CB-1 cannabinoid receptor (Homo sapiens (Human), UniProt P21554). In words: CB-1 receptor radioligand binding assay, [3H]CP 55940, transfected CHO cell membranes. The conditions noted are these: 0.5 nM [3H]CP 55940, CHO cell membranes, 120 min at 37° C. The procedure: Nonspecific binding is determined in the presence of 10 µM WIN 55212-2.
Following incubation, the samples are filtered rapidly under vacuum through glass fiber filters (GF/B, Packard) presoaked with 0.3% PEI and rinsed several times with an ice-cold buffer containing 50 mM Tris-HCl (pH 7.4) and 0.5% BSA using a 96-sample cell harvester (Unifilter, Packard). The filters are dried then counted for radioactivity in a scintillation counter (Topcount, Packard) using a scintillation cocktail (Microscint 0, Packard).
The standard reference compound is CP 55940 which is tested in each experiment at several concentrations to obtain a competition curve from which its IC50 is calculated.

The next assay concerns the target human CB1 receptor (Homo sapiens (Human), UniProt P21554). In words: CB1 receptor antagonism, agonist-induced cAMP modulation (HTRF) in transfected CHO cells. Format: cell-based. The conditions noted are these: read-out: Antag IC50. As to the method: Receptor antagonism: Evaluation of the antagonist activity of compounds at the human CB1 receptor expressed in transfected CHO cells, determined by measuring their effects on agonist-induced cAMP modulation using the HTRF detection method.
Thereafter, the reference agonist CP 55940 and the adenylyl cyclase activator NKH 477 are added at respective final concentrations of 3 nM and 3 µM.
For basal control measurements, CP 55940 is omitted from the wells containing 3 µM AM 281.
Following 20 min incubation at 37° C., the cells are lysed and the fluorescence acceptor (D2-labeled cAMP) and fluorescence donor (anti-cAMP antibody labeled with europium cryptate) are added.
After 60 min at room temperature, the fluorescence transfer is measured at λex=337 nm and λem=620 and 665 nm using a microplate reader (Rubystar, BMG). The cAMP concentration is determined by dividing the signal measured at 665 nm by that measured at 620 nm (ratio).
The standard reference antagonist is AM 281, which is tested in each experiment at several concentrations to generate a concentration-response curve from which its IC50 value is calculated.

This note sets out measurements from patent publication US20230271964A1, “5-AMINO-8-(4-PYRIDYL)-[1,2,4]TRIAZOLO[4,3-C]PYRIMIDIN-3-ONE COMPOUNDS FOR USE AGAINST CANCER” (ASTRAZENECA AB, priority 2020, published 2023).

SMILES strings stand for the structures.

human adenosine A1 receptor, sequence (P30542 whole entry): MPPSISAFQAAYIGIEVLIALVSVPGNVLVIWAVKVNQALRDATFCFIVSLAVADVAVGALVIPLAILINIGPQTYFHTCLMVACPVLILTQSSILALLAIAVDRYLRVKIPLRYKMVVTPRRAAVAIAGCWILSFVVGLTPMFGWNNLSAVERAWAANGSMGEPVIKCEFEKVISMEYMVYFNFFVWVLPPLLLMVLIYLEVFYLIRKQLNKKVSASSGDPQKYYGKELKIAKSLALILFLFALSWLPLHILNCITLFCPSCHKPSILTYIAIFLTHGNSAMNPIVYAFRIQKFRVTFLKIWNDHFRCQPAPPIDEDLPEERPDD
human adenosine A2A receptor, sequence (P29274 whole entry): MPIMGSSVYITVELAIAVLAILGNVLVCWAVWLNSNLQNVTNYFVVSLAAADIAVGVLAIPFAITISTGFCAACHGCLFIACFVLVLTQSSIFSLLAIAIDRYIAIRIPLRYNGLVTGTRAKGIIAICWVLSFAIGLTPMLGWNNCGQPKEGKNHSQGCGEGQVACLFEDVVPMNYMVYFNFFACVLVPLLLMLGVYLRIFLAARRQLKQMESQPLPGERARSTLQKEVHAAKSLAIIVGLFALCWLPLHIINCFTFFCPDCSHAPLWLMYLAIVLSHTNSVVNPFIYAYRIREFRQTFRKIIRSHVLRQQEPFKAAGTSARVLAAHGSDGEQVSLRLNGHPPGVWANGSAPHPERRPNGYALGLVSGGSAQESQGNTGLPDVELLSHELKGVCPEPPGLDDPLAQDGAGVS
human CB-1 cannabinoid receptor, sequence (P21554 whole entry): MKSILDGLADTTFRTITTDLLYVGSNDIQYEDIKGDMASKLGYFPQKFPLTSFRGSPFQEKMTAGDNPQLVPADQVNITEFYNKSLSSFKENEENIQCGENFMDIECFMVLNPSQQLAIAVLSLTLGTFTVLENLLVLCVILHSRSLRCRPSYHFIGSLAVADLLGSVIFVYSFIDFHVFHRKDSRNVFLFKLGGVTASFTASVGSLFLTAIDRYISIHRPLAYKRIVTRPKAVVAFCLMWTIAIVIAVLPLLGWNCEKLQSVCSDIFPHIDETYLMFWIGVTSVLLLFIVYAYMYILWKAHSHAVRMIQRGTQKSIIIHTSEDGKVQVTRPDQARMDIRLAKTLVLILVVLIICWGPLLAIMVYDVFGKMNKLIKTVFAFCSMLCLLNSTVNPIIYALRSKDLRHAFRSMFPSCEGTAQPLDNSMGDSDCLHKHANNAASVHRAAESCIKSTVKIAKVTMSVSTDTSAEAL
human CB1 receptor, sequence (P21554 whole entry): as above

In the case of `Cc1cc(-c2c(-c3ccccc3)nc(N)n3c(=O)n(C[C@H]4CC(F)(F)CN4C)nc23)cc(C)n1` [Example 2-14, 5-amino-2-[[(2R)-4,4-difluoro-1-methyl-pyrrolidin-2-yl]methyl]-8-(2,6-dimethyl-4-pyridyl)-7-phenyl-[1,2,4]triazolo[4,3-c]pyrimidin-3-one], the figures for the Ki in assay [1] (read-out: A1 pKi (converted)), in assay [2] (read-out: A2A pKi (converted)) and in assay [3] were 0.1 µM, 0.00316 µM and 36.4 µM, respectively. Besides, at human CB1 receptor, the IC50 was determined as 35.8 µM.

For the molecule `Cc1cc(-c2c(-c3ccc(F)cc3)nc(N)n3c(=O)n(Cc4nccn4C)nc23)cc(CO)n1` [Example 1-50, 5-amino-7-(4-fluorophenyl)-8-[2-(hydroxymethyl)-6-methyl-4-pyridyl]-2-[(1-methylimidazol-2-yl)methyl]-[1,2,4]triazolo[4,3-c]pyrimidin-3-one], in assay [1], the “A1 pKi” value was determined as 6.5. In assay [2], the “A2A pKi” value stood at 9.5. The molecule also returned a Ki in assay [3] of 86.1 µM. Further, the IC50 at human CB1 receptor is > 100 µM.

For `Cc1cc(-c2c(-c3ccccc3)nc(N)n3c(=O)n(Cc4cc(C)on4)nc23)cc(C)n1` [Example 1-14, 5-amino-8-(2,6-dimethyl-4-pyridyl)-2-[(5-methylisoxazol-3-yl)methyl]-7-phenyl-[1,2,4]triazolo[4,3-c]pyrimidin-3-one], in assay [1], the “A1 pKi” value worked out at 6.6. Further, the “A2A pKi” value in assay [2] was determined as 9.2. Moreover, the Ki in assay [3] was 50.5 µM. In addition, at human CB1 receptor, the IC50 turned out to be 29.2 µM.

Take `COc1cc(-c2c(-c3ccc(F)cc3)nc(N)n3c(=O)n(Cc4ncoc4C)nc23)cc(CO)n1` [Example 1-64, 5-amino-7-(4-fluorophenyl)-8-[2-(hydroxymethyl)-6-methoxy-4-pyridyl]-2-[(5-methyloxazol-4-yl)methyl]-[1,2,4]triazolo[4,3-c]pyrimidin-3-one]: the “A1 pKi” value in assay [1] turned out to be 6.5. Further, in assay [2], the “A2A pKi” value is 9.6. This molecule also yielded a Ki in assay [3] of 40.8 µM. The IC50 at human CB1 receptor is > 100 µM.

Take `Cc1cc(-c2c(-c3ccc(F)cc3)nc(N)n3c(=O)n(Cc4ncoc4C)nc23)cc(CO)n1` [Example 1-51, 5-amino-7-(4-fluorophenyl)-8-[2-(hydroxymethyl)-6-methyl-4-pyridyl]-2-[(5-methyloxazol-4-yl)methyl]-[1,2,4]triazolo[4,3-c]pyrimidin-3-one]: in assay [1], the “A1 pKi” value is 6.4. Besides, in assay [2], the “A2A pKi” value is recorded as 9.4. In addition, the Ki in assay [3] turned out to be 80.3 µM. Further, the IC50 at human CB1 receptor was > 100 µM.

On to `Cc1cc(-c2c(-c3ccccc3)nc(N)n3c(=O)n(CCN4CCCC4c4cccs4)nc23)cc(C)n1` (stereo not drawn) [Example 3-1, 5-amino-8-(2,6-dimethyl-4-pyridyl)-7-phenyl-2-[2-[2-(2-thienyl)pyrrolidin-1-yl]ethyl]-[1,2,4]triazolo[4,3-c]pyrimidin-3-one], for which, in assay [1], the “A1 pKi” value came to 7.6. Besides, the “A2A pKi” value in assay [2] is recorded as 8.9. The same molecule came in with a Ki in assay [3] of 29.2 µM. On human CB1 receptor, the IC50 is 10.1 µM.
